According to US10131669B2, “Pyrazolopyrimidine compounds” (Pfizer Inc., priority 2014, dated 2018):

Key:
Assay type in all cases: biochemical
Human PDE4A3 = target: T1, Human PDE4A3 (Homo sapiens, UniProt P27815); assay: PDE4A3 Scintillation Proximity Assay (SPA), inhibition of enzyme activity; settings: geometric mean of 2-7 determinations unless otherwise indicated (b: ≥8 determinations; c: single determination), 1 μM cAMP, 30 min at 25° C., read-out: Human PDE4A FL
T1 construct: His6 (N); FLAG (C); made in house; host or cells: insect cells (baculovirus, pFastBac)
Description: (§1) Human PDE4A3 coding sequence (amino acids 2 to 825 from the sequence with accession number NP_001104779) was cloned into the baculovirus expression vector pFastBac (Invitrogen) engineered to include an N-terminal His6 affinity tag and a c-terminal FLAG affinity tag to aid in purification. The recombinant Bacmid was isolated and used to transfect insect cells to generate a viral stock. To generate cell paste for purification, insect cells were infected with the virus stock and cells were harvested 72 hours after infection. Insect cell paste was lysed and after centrifugation, the supernatant was batch bound to Ni-NTA agarose (GE Healthcare) and eluted with 250 mM imidazole. This eluate was diluted with FLAG buffer (50 mM Tris HCL pH 7.5, 100 mM NaCl, 5% Glycerol, 1 mM TCEP with protease inhibitors) and batch bound to ant-FLAG M2 agarose (Sigma) overnight at 4° C. The agarose was packed into a column, washed with buffer and eluted with buffer containing elute using 250 ug/ml Flag-peptide. Fractions were analyzed using SDS-PAGE Coomassie blue staining and pooled based on purity. Pooled fractions were chromatographed on a S200 120 ml column (GE Healthcare) in 50 mM Tris HCL pH 7.5, 150 mM NaCl, 10% Glycerol, 2 mM TCEP with protease inhibitors. PDE4A3 fractions were analyzed by SDS-PAGE Coomassie blue staining, pooled based on purity, dialyzed against 50 mM Tris HCL pH 7.5, 100 mM NaCl, 20% Glycerol, 2 mM TCEP, frozen and stored at −80° C.
(§2) The PDE4A3, PDE4B1, PDE4C1 and PDE4D3 assays use the Scintillation Proximity Assay (SPA) technology to measure the inhibition of human recombinant […], PDE4C1, and PDE4D3 enzyme activity by compounds in vitro. The PDE4A1, PDE4B3, PDE4C1, and PDE4D3 assays are run in parallel using identical parameters, except for the concentration of enzyme (80 pM PDE4A3, 40 pM PDE4B3, 40 pM PDE4C1 and 10 pM PDE4D). The assays are performed in a 384-well format with 50 uL assay buffer (50 mM TRIS pH7.5; 1.3 mM MgCl2; 0.01% Brij) containing enough PDE4A3, PDE4B1, PDE4C1, and PDE4D to convert ˜20% of substrate (1 μM cAMP consisting of 20 nM 3H-cAMP+[…] cold cAMP) and a range of inhibitors. Reactions are incubated for 30 min at 25° C. The addition of 20 uL of 8 mg/ml yitrium silicate SPA beads (Perkin Elmer) stops the reaction. The plates are sealed (TopSeal, Perkin Elmer) and the beads are allowed to settle for 8 hrs, after which they are read on the Trilux Microbeta overnight.

Human PDE4C1 = target: T2, Human PDE4C1 (Homo sapiens, UniProt Q08493); assay: PDE4C1 Scintillation Proximity Assay (SPA), inhibition of enzyme activity; settings: geometric mean of 2-7 determinations unless otherwise indicated (b: ≥8 determinations; c: single determination), 1 μM cAMP, 30 min at 25° C., read-out: Human PDE4C FL
T2 construct: His6 (N); FLAG (C); made in house; host or cells: insect cells (baculovirus, pFastBac)
Procedure: as §1, with “The” for “Human PDE4A3 coding sequence (amino acids 2 to 825 from the sequence with accession number NP_001104779) was cloned into the baculovirus expression vector pFastBac (Invitrogen) engineered to include an N-terminal His6 affinity tag and a c-terminal FLAG affinity tag to aid in purification. The”, “PDE4C1” for “PDE4A3”
as §2

Human PDE4B1 = target: T3, Human PDE4B1 (Homo sapiens, UniProt Q07343, S133E/S654A/S659A/S661A); assay: PDE4B1 Scintillation Proximity Assay (SPA), inhibition of enzyme activity; settings: geometric mean of 2-7 determinations unless otherwise indicated (b: ≥8 determinations; c: single determination); 1 μM cAMP, 30 min at 25° C.; read-out: Human PDE4B FL; IC50
T3 construct: His6 (N); thrombin cleavage site (N); made in house; host or cells: insect cells (baculovirus, pFastBac)
Procedure: The recombinant Bacmid was isolated and used to transfect insect cells to generate a viral stock. To generate cell paste for purification, insect cells were infected with the virus stock and cells were harvested 72 hours after infection as described in Seeger, T. F. et al., Brain Research 985 (2003) 113-126. Insect cell paste was lysed and after centrifugation, the supernatant was chromatographed on Ni-NTA agarose (Qiagen) as described in Seeger, T. F. et al., Brain Research 985 (2003) 113-126. Ni-NTA agarose eluting fractions containing PDE4 were pooled, diluted with Q buffer A (20 mM Tris HCl pH 8, 5% glycerol, 1 mM TCEP) to reduce NaCl to ˜100 mM and loaded on a Source 15Q (GE Healthcare) column. After washing with Q buffer A/10% buffer B to baseline, PDE4D was eluted with a gradient from 10% to 60% of Buffer B (20 mM Tris HCl pH 8, 1 M NaCl, 5% glycerol, 1 mM TCEP). PDE4D fractions were analyzed by SDS-PAGE Coomassie blue staining, pooled based on purity, frozen and stored at −80° C.
as §2

human PDE4D3 = target: T4, human PDE4D3 (Homo sapiens, UniProt Q08499); assay: PDE4D3 Scintillation Proximity Assay (SPA), inhibition of enzyme activity; settings: geometric mean of 2-7 determinations unless otherwise indicated (b: ≥8 determinations; c: single determination); 1 μM cAMP, 30 min at 25° C.; read-out: Human PDE4D FL; IC50
T4 construct: His6 (C); made in house; host or cells: insect cells (baculovirus, pFastBac)
Procedure: The recombinant Bacmid was isolated and used to transfect insect cells to generate a viral stock. To generate cell paste for purification, insect cells were infected and cells were harvested 72 hours after infection. Insect cell paste was lysed and after centrifugation, the supernatant was chromatographed on Ni-NTA agarose (Qiagen) as described in Seeger, T. F. et al., Brain Research 985 (2003) 113-126. Ni-NTA agarose eluting fractions containing PDE4 were pooled, diluted with Q Buffer A (50 mM Tris HCl pH 8, 4% glycerol, 100 mM NaCl, 1 mM TCEP, Protease inhibitors EDTA-free (Roche)) to reduce NaCl to ˜200 mM, and loaded on a Q Sepharose (GE Healthcare) column. After washing with Q buffer A to baseline, PDE4D was eluted with a gradient from 10% to 60% of Buffer B (50 mM Tris HCl pH 8, 1 M NaCl, 4% glycerol, 1 mM TCEP). PDE4D fractions were analyzed by SDS-PAGE Coomassie blue staining, pooled based on purity, frozen and stored at −80° C.
as §2

T4 sequence (Q08499 186-808): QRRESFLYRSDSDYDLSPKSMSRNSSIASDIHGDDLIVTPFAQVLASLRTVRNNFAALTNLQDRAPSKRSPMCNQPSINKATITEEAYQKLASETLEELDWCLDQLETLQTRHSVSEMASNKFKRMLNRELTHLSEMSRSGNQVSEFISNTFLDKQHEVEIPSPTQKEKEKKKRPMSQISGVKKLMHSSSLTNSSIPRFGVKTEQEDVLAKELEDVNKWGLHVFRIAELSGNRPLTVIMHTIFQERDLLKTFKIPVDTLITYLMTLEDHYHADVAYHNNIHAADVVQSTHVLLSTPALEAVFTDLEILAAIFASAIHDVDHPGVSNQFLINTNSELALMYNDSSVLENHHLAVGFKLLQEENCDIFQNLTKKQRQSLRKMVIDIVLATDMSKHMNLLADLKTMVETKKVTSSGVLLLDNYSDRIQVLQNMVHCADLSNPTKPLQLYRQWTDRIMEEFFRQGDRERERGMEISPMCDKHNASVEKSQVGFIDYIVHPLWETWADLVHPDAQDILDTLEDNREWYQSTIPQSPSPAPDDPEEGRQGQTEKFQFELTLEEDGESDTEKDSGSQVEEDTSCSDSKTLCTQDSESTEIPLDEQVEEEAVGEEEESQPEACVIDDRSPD
T2 sequence (Q08493 2-712): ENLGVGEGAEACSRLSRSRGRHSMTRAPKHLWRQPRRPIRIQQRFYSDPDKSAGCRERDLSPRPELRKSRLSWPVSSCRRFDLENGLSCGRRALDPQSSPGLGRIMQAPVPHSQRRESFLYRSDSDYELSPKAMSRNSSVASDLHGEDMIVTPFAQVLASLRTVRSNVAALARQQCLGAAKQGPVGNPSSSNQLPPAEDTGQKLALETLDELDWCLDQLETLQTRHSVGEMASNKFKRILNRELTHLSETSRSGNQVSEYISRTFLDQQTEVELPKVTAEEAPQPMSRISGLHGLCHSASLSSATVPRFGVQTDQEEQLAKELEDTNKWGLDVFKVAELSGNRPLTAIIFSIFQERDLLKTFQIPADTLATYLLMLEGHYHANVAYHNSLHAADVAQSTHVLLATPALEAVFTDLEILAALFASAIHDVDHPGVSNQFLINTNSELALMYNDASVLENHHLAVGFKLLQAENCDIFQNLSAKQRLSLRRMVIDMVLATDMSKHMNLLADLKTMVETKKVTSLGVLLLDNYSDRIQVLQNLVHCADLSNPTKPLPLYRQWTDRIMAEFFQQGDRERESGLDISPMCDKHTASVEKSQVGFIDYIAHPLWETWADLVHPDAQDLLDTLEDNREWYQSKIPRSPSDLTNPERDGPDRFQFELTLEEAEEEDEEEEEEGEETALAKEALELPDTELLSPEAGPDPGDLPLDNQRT
T1 sequence (P27815 2-825 isoform P27815-6): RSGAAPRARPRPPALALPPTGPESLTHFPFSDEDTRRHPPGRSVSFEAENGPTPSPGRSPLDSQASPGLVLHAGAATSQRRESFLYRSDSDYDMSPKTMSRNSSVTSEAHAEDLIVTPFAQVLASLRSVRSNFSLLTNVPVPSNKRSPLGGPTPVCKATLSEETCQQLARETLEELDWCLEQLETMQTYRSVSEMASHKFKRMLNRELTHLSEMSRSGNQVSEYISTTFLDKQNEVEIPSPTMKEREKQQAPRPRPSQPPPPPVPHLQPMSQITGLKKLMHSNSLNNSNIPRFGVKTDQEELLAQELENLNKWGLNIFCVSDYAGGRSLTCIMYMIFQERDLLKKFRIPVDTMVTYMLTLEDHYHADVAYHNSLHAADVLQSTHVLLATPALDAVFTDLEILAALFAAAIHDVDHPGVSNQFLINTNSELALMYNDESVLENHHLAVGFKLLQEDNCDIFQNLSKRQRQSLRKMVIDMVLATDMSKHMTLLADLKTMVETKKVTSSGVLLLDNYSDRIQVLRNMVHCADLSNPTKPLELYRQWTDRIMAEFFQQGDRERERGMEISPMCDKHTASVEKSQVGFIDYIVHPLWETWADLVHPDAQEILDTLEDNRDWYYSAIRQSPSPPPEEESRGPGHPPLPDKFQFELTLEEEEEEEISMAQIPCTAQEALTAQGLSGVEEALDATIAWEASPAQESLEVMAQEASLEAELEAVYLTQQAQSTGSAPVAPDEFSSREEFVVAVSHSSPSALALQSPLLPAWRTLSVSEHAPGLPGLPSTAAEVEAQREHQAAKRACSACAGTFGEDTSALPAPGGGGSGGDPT
T3 sequence (Q07343 122-736 S133E/S654A/S659A/S661A): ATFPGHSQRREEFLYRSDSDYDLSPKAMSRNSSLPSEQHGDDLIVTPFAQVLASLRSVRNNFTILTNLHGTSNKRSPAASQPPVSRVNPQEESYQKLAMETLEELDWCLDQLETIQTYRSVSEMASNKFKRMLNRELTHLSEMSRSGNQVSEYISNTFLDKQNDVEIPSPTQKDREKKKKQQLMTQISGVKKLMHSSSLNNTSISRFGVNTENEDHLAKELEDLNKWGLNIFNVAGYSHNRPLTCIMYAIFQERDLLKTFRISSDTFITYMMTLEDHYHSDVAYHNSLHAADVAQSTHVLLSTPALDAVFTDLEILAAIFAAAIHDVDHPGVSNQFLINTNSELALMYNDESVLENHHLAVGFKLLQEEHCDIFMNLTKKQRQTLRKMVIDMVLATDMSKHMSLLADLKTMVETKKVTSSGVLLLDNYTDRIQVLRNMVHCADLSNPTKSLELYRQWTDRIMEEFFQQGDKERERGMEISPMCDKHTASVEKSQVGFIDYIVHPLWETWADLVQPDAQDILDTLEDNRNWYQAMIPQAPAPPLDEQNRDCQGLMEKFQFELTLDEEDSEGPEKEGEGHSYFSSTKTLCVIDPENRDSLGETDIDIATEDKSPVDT

Row | Compound | IC50 (Human PDE4A3) [nM] | IC50 (Human PDE4C1) [nM] | IC50 (Human PDE4B1) [nM] | IC50 (human PDE4D3) [nM]
1 | O=C(NC1CC1)c1nn2cccnc2c1-c1ccc(Cl)cc1F [Example 14, 3-(4-chloro-2-fluorophenyl)-N-cyclopropylpyrazolo[1,5-a]pyrimidine-2-carboxamide] | 51.8 | 83.3 | 179 | > 16700
2 | CCNC(=O)c1nn2cccnc2c1-c1ccc(Cl)c(F)c1 [Example 53, 3-(4-chloro-3-fluorophenyl)-N-ethylpyrazolo[1,5-a]pyrimidine-2-carboxamide] | 7.66 | 21.8 | 32 | 830
3 | CCCC(=O)Nc1nn2cccnc2c1-c1ccc(Cl)c(F)c1 [Example 4, N-[3-(4-Chloro-3-fluorophenyl)pyrazolo[1,5-a]pyrimidin-2-yl]butanamide] | 553 | 1540 | 894 | > 30000
4 | N#Cc1ccc(-c2c(C(=O)N3CCC3)nn3cccnc23)cc1F [Example 15, 4-[2-(azetidin-1-ylcarbonyl)pyrazolo[1,5-a]pyrimidin-3-yl]-2-fluorobenzonitrile] | 109 | 52.7 | 51.7 | 6630
5 | O=C(N[C@@H]1C[C@@H]1F)c1nn2cccnc2c1-c1ccc(Cl)c(F)c1 [Example 28, 3-(4-chloro-3-fluorophenyl)-N-[(1R,2S)-2-fluorocyclopropyl]pyrazolo[1,5-a]pyrimidine-2-carboxamide] | 14.4 | 19.9 | 3.7 | 140
6 | N#Cc1ccc(-c2c(C(=O)N3CCC3)nn3cccnc23)c(F)c1 [Example 75, 4-[2-(azetidin-1-ylcarbonyl)pyrazolo[1,5-a]pyrimidin-3-yl]-3-fluorobenzonitrile] | 745 | 292 | 377 | > 28000
7 | O=C(NC1CC1)c1nn2cc(F)cnc2c1-c1ccc(Cl)c(F)c1F [Example 58, 3-(4-chloro-2,3-difluorophenyl)-N-cyclopropyl-6-fluoropyrazolo[1,5-a]pyrimidine-2-carboxamide] | 4.04 | 9 | 20.1 | 430
8 | CC(C)NC(=O)c1nn2cccnc2c1-c1ccc(Cl)cc1 [Example 26, 3-(4-chlorophenyl)-N-(propan-2-yl)pyrazolo[1,5-a]pyrimidine-2-carboxamide] | 411 | 626 | 488 | 4910
9 | O=C(NC1CC1)c1nn2cc(F)cnc2c1-c1ccc2ocnc2c1 [Example 65, 3-(1,3-benzoxazol-5-yl)-N-cyclopropyl-6-fluoropyrazolo[1,5-a]pyrimidine-2-carboxamide] | 57 | 128 | 59 | 1160
10 | CCNC(=O)c1nn2cccnc2c1-c1cc(F)c(Cl)cc1F [Example 19, 3-(4-chloro-2,5-difluorophenyl)-N-ethylpyrazolo[1,5-a]pyrimidine-2-carboxamide] | 11.3 | 36.4 | 41.4 | 2110
11 | O=C(c1nn2cccnc2c1-c1ccc(Cl)c(F)c1)N1CCC1 [Example 12, azetidin-1-yl[3-(4-chloro-3-fluorophenyl)pyrazolo[1,5-a]pyrimidin-2-yl]methanone] | 22 | 48 | 6.06 | 993
12 | Cc1cc(C#N)c(F)cc1-c1c(C(=O)NC2CC2)nn2cccnc12 [Example 23, 3-(4-cyano-5-fluoro-2-methylphenyl)-N-cyclopropylpyrazolo[1,5-a]pyrimidine-2-carboxamide] | 8.42 | 39.4 | 25.9 | 442
13 | O=C(NC1CC1(F)F)c1nn2cccnc2c1-c1ccc(Cl)c(F)c1 (stereo not shown) [Example 39, 3-(4-chloro-3-fluorophenyl)-N-(2,2-difluorocyclopropyl)pyrazolo[1,5-a]pyrimidine-2-carboxamide] | 23.2 | 66.3 | 12.9 | 300
14 | O=C(NC1CC1)c1nn2cccnc2c1-c1ccc(Cl)c(F)c1 [Example 5, 3-(4-Chloro-3-fluorophenyl)-N-cyclopropylpyrazolo[1,5-a]pyrimidine-2-carboxamide] | 3.29 | 18 | 5.87 | 662
15 | Cc1cc(Cl)ccc1-c1c(C(=O)NC(C)C)nn2cccnc12 [Example 51, 3-(4-chloro-2-methylphenyl)-N-(propan-2-yl)pyrazolo[1,5-a]pyrimidine-2-carboxamide] | 144 | 314 | 488 | > 16500
16 | O=C(NC1CC1)c1nn2cc(F)cnc2c1-c1cc(F)c(Cl)c(F)c1 [Example 57, 3-(4-chloro-3,5-difluorophenyl)-N-cyclopropyl-6-fluoropyrazolo[1,5-a]pyrimidine-2-carboxamide] | 0.461 | 2.83 | 2.71 | 92.1
